Reference: publication PMC7334220, “Diamond Blackfan anemia is mediated by hyperactive Nemo-like kinase” (Nature Communications, 2020)

Tests used:
[1] = test system: RPS19-insufficient cord blood CD34+ HSPCs; test: In vitro differentiation of cord blood CD34+ HSPCs transduced with shRNA against RPS19 (cell count and flow cytometry); for erythroid expansion in RPS19-insufficiency, % of control: untreated 8.7%; type: cell-based, human; settings: for increase of erythropoiesis in RPS19-insufficiency compared with control treated cells: CD235+ erythroid cells after 15 days, inhibitors at working concentrations for TGFβ inhibition every three days, Fig. 1d
Experimental: Cells were plated at 2000 cell per well in 96-well plates in the presence or absence of doxycycline. Relative amounts of live cells were quantified by luciferase-based Cell titer-Glo® assay. b TGFβR1 inhibitors were assessed for their ability to increase cell expansion in RPS19-insuffiency. As a control, vehicle alone (no doxycycline) is represented at the far left while all other samples were treated with doxycycline to induce RPS19-insufficiency. c Kit^+ erythroid progenitors were grown in the absence of doxycycline and in the presence of 10 µM of indicated compound. In addition, cells were treated with 5 ng/ml of TGFβ1 for 5 days before being subjected to Cell titer-Glo® assay. d Differentiating cord blood CD34^+ progenitors were transduced with shRNA against luciferase or RPS19 and treated with inhibitors at working concentrations for TGFβ inhibition every three days. […] Cells were counted and CD235^+ erythroid (i and iii) and CD11b^+ myeloid cell (ii and iv) percentages were determined by flow cytometry. The number of erythroid or myeloid cells is expressed as a percentage of the number of that lineage with no cytokine or drug treatment. Bars represent means ± SD with individual data points overlaid. n = 3 independent experiments performed in triplicate. Statistics: two-tailed Student’s t test, significant *p < 0.05. Also see Supplementary Fig. 1. Erythroid expansion is depicted in red while myeloid is in purple. Source data are provided as a Source Data file.
Cells were counted and assessed for cell surface expression of CD235. b Lin-Kit^+ hematopoietic progenitors were obtained from three mouse embryos expressing tetracycline-inducible shRNA against RPS19 at day E14.5 or three untreated mice, and thee mature RPL11^+/+ or three mature RPL11^+/lox mice treated with tamoxifen for eight weeks. […] Values were expressed as a percentage relative to untreated controls. c, d Intracellular phosphorylation of NLK at Thr298 was determined by capillary electrophoresis using the Peggy Sue™ Automated Western blotting platform. After lysis, 4 µg of protein from the CD235^+ population was probed against pThr298-NLK and normalized to GAPDH. […] After counting the total cell population, the ratio of CD235^+ erythroblasts was determined by flow cytometry and number of CD235^+ erythroblasts calculated. This was expressed as a percentage of the average number of erythroid cells present in untreated healthy controls. f NLK phosphorylation was assessed by capillary electrophoresis as above. Bars represent means ± SD with individual data points overlaid. […] Statistics: two-tailed Student’s t test, significant *p < 0.05. Also see Supplementary Fig. 8. Source data are provided as a Source Data file.
Primary human CD34^+ hematopoietic stem and progenitor cells were purified from cord or peripheral blood (New York Blood Center) or from human fetal liver tissue (Advanced Bioscience Resources and University of California, Los Angeles Center for AIDS Research) by using magnetic-activated cell sorting (Miltenyi Biotec) and were cryopreserved. Upon thawing, cells were cultured in x-Vivo15 media (Lonza) containing 10% fetal bovine serum, fms-related tyrosine kinase 3 (50 ng/ml), […] (50 ng/ml), interleukin-3 (IL-3; 20 ng/ml), interleukin-6 (IL-6; 20 ng/ml), and stem cell factor (50 ng/ml). When applied, TGFβ1 was added at 5 ng/ml. Kp53A1 cells were obtained from Javier Leon and cultured in DMEM supplemented with 10% fetal bovine serum at 37 or 32 °C.

p38 [2] = biological target: T1, p38 (Homo sapiens, UniProt Q16539); test: p38 in vitro kinase assay; type: biochemical; settings: Supplementary Fig. 4b; read-out: observed IC50 against p38
T1 construct: endogenous in cells; host or cells: Kp53A1 cells stimulated with IL-3, IL-6, SCF and Epo; immunoprecipitated with a p38 antibody
Experimental: Equivalent protein was loaded between samples. b—blue Transduced progenitors were differentiated for 15 days and sorted for surface expression of CD235 + , CD41 + and CD11b + population NLK mRNA was assessed by qRT-PCR. c Control and shRPS19-transduced CB progenitors were differentiated for 10 days prior to separation into CD71^+ and CD71^- populations and assessed for pThr298-NLK phosphorylation by Western blot analysis. d—purple CB CD34 + progenitors were transduced with shRNA against luciferase (shLuc) or RPS19 (shRPS19) along with CFP-NLK and YFP-NLK and differentiated for 10 days. NLK dimerization was quantified by FRET. e—left panel NLK was immunoprecipitated from transduced differentiating CD71^+ and CD71^- populations after 10 days, and incubated in the presence of ATP, Mg^2+ and dephosphorylated NLK (i orange), c-Myb (ii—blue) and Raptor (iii—green) for 30 min at 37 °C. Phosphorylation was detected by a combination of anti^-phosphoserine-HRP and anti-phosphothreonine-HRP antibodies, or mouse anti-phosphoserine and anti-mouse-HRP antibodies. e—right panel For comparison, NLK in vitro kinase activity was assessed from CD235^+, CD41^+ and CD11b^+ populations enriched after identical treatments. f A panel of eight small molecule p38 inhibitors were titrated into in vitro kinase assays in the presence of activated NLK or p38 from stimulated Kp53A1 cells. […]

p38 [3] = test: Reported p38 inhibition (literature / PubChem); type: biochemical; settings: 850nM vs 440nM; rebuttal letter
Source text: But as p38 can phosphorylate NLK, Myb and Raptor in vitro, we performed a series of experiments that indicate NLK-associated p38 is not contributing to substrate phosphorylation. We determined the IC50 values of a panel of eight p38 inhibitors against p38 and NLK in our in vitro kinase assays. For comparison, reported IC50 values from bioassay results submitted to the National Center for Biotechnology Information PubChem Database were tabulated.

p38 [4] = settings: reported, no reference given; read-out: reported IC50 against p38; cited from earlier work

T1 sequence (Q16539 2-360 limits assumed): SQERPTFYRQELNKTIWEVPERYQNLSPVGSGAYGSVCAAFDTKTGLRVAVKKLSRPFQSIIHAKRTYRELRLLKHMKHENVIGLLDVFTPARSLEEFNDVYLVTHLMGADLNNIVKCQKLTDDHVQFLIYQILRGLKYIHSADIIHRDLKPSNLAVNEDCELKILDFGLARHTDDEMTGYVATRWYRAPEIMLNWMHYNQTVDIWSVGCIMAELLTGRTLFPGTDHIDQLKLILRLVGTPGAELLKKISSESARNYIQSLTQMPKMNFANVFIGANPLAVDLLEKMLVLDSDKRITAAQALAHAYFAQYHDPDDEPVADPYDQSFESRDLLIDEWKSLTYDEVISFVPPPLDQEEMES

SMILES | erythroid expansion (CD235) in RPS19-insufficient HSPCs ([1]; 12 days, recommended concentrations, rebuttal Experiment 12) | increase of erythropoiesis in RPS19-insufficiency compared with control treated cells [1] | improvement of erythropoiesis (comparison of SD208 with p38 inhibitors) ([1]; CD235+, 12 days, recommended concentrations, Supplementary Fig. 2b) | activity at 5 µM ([1]; Homo sapiens, 360 h, read-out: erythroid expansion in RPS19-insufficiency, % of control) | erythroid expansion, % of vehicle treated control cells ([1]; RPS19-insufficient cells, 5 µM, with or without TGFβ, Fig. 1e.iii) | RPS19-insufficient CD235+ erythroblast expansion, % of ribosome-competent controls ([1]; SD208 alone every three days, 15 days, untreated […], Fig. 2d.i) | RPS19-insufficient CD235+ erythroblast expansion, % of ribosome-competent controls, combined with siRNA against NLK ([1]; SD208 plus siNLK, 15 days, untreated […], Fig. 2d.i) | effect on differentiation of non-erythroid hematopoietic lineages ([1]; control or ribosome-insufficient cells) | IC50 (p38 [2]) | reported p38 IC50 compared to observed NLK IC50 (p38 [3]) | IC50 (p38 [4])
Fc1ccc(Cl)cc1-c1nc(Nc2ccncc2)c2nccnc2n1 [SD208] | significantly increased | 6.3 fold | improved erythropoiesis | 38.7% | 428.6% | 40.3% | 43.6% | did not impact | 910 nM | 2 fold | 850 nM
NC(=O)c1ccc(-c2nc(-c3ccc4c(c3)OCO4)c(-c3ccccn3)[nH]2)cc1 [SB431542] | – | 3.2 fold | – | – | – | – | – | – | – | – | 9000 nM
